Measured values published in PubChem BioAssay (NCI).
Where “and” joins values, the source holds several entries; their conditions need not be identical. Equal values may be shown once.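 Growth conditions: 96-well plates. Treatment: test compound, 48 hours, 5 concentrations. Analysis: linear interpolation between bracketing concentrations; unreached endpoints set to highest concentration. Here, GI50 denotes the concentration required for 50% inhibition of growth. TGI is the concentration that stops growth completely.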

Tests used:
Assay in all cases: NCI anticancer screen, dose series, 48 h
[1] = system: M14 melanoma
[2] = system: HOP-92 NSCLC
[3] = system: A549 NSCLC
[4] = system: SF-295 CNS
[5] = system: NCI-H226 lung
[6] = system: HCT-15 colon
[7] = system: OVCAR-5 ovarian
[8] = system: NCI/ADR-RES ovarian
[9] = system: HT29 colon
[10] = system: HL-60(TB) leukemia

SMILES	GI50 [1]	TGI [1]	GI50 [2] [µM]	TGI [2] [µM]	GI50 [3]	TGI [3] [µM]	GI50 [4]	TGI [4] [µM]	GI50 [5]	TGI [5] [µM]	GI50 [6]	TGI [6] [µM]	GI50 [7]	TGI [7] [µM]	GI50 [8]	TGI [8] [µM]	GI50 [9]	TGI [9] [µM]	GI50 [10]	TGI [10]
Cc1cc(O)cc(C)c1/C=C/c1cncc(C(=O)N(C)C)c1	> 25 µM	> 25 µM	> 25	> 25	> 25 µM	> 25	> 14.8 µM	> 25	> 25 µM	> 25	> 25 µM	> 25	> 25 µM	> 25	> 25 µM	> 25	> 25 µM	> 25	> 25 µM	> 25 µM
CCCCc1cc(O)ccc1O	–	–	26.1	> 100	89.2 µM	> 100	42.7 µM	> 100	48.8 µM	> 100	28.2 µM	> 100	30 µM	> 100	23.2 µM	> 100	43.1 µM	> 100	2.56 µM	6.77 µM
CCc1ccc(C2=C(O)C(=O)C(c3ccc(CC)cc3)=C(O)C2=O)cc1	1.74 µM	4.54 µM	1.24	4.33	2.74 µM	10.4	1.93 µM	6.7	1.9 µM	7.34	2.23 µM	7.5	1.61 µM	5.88	2.21 µM	5.86	2.34 µM	7.79	2.6 µM	6.24 µM
Cn1cnc([N+](=O)[O-])c1Sc1ncnc2nc[nH]c12	0.755 µM and 2.77 µM	60.5 µM and > 100 µM	–	> 100	40 µM and > 67.3 µM	> 100	1.61 µM and 9.82 µM	> 100	7.17 µM and > 27.2 µM	> 100	14.2 µM and 19.6 µM	> 100	8.42 µM and 53.2 µM	> 100	3.27 µM and 5.39 µM	> 100	7.17 µM and 22.6 µM	> 100	11 µM and 16.9 µM	71 µM and > 64.7 µM
O=[N+]([O-])/C=C\c1ccc2c(c1)OCO2	2.08 µM	4.77 µM	12.5	30.9	2.34 µM	5.23	11.5 µM	26.5	13.8 µM	53	2.46 µM	6.68	11.5 µM	26.4	10.3 µM	29.3	2.07 µM	4.89	10.2 µM	46.5 µM
CCN(CC)CC(C)Nc1ccc(C)c2sc3ccccc3c(=O)c12 (centres undefined)	1.62 µM	3.2 µM	0.896	8.36	3.02 µM	16.8	2.66 µM	8.56	4.21 µM	18.8	3.39 µM	14.7	2.95 µM	12.4	5.56 µM	18.7	3.29 µM	10.8	1.62 µM	5.24 µM
CC[C@@]1(OC(=O)CCC(=O)O)C(=O)OCc2c1cc1n(c2=O)Cc2cc3ccccc3nc2-1	–	1.41 µM	–	6.08	–	5.54	–	1.78	–	3.13	–	11.7	–	11.9	–	0.791	–	> 33.6	–	0.449 µM
COC1C(=O)CCC2(CO2)C1(O)C1(C)OC1CCC(C)C (centres undefined)	–	> 100 µM	–	> 100	–	–	–	> 100	–	> 100	–	> 100	–	> 100	–	> 100	–	> 100	–	> 100 µM
N#CC1C(N)=NNC1c1ccc(-c2ccc(-c3nc4ccccc4o3)cc2)o1 (centres undefined)	63.7 µM	> 100 µM	18.2	> 100	32.3 µM	> 100	66.4 µM	> 100	15.1 µM	74.5	32.3 µM	> 100	38.1 µM	> 100	36 µM	75.6	–	–	57.7 µM	> 100 µM
Nc1ccc2c(c1)[O][Sn]([c]1ccccc1)([c]1ccccc1)[O]C2=O	11.2 µM	25.4 µM	2.59	7.11	4.61 µM	15.9	6.38 µM	14.5	9.13 µM	16.7	6.8 µM	17.9	17.2 µM	31.1	9.08 µM	30.2	12.1 µM	26.5	2.64 µM	10.4 µM
Cc1ccc(S(=O)(=O)NCCN2c3nc4ccccc4cc3Sc3cc4ccccc4nc32)cc1	> 100 µM	> 100 µM	2.19	13.3	> 100 µM	> 100	4.04 µM	18.5	64.2 µM	> 100	> 100 µM	> 100	> 100 µM	> 100	> 25.1 µM	> 100	> 100 µM	> 100	> 100 µM	> 100 µM
c1cc(-c2sc(-c3ccncc3)c(-c3ccncc3)c2-c2ccncc2)ccn1	–	31.2 µM	–	29.6	–	45.8	–	41.6	–	30.4	–	56.7	–	47.2	–	82	–	27.7	–	–
OC1CCC(Oc2cccc3cnc(Nc4ccc5nc[nH]c5c4)nc23)CC1 (centres undefined)	0.333 µM	3.11 µM	0.467	29.4	0.404 µM	19.7	0.429 µM	12	–	–	0.508 µM	16.7	0.327 µM	30.7	1.6 µM	13	0.437 µM	9.15	0.155 µM	0.447 µM
CC/C=C\C[C@H](O)C/C=C1/C(=O)C=C[C@@H]1C/C=C\CCCC(N)=O	2.31 µM	6.89 µM	3.15	6.74	2.49 µM	6.01	2.52 µM	6.23	2.34 µM	5.48	1.74 µM	5.69	3.89 µM	11.8	2.81 µM	12.3	1.89 µM	3.7	–	–
c1ccc2c(NCCCCCCCCNc3c4ccccc4nc4ccccc34)c3ccccc3nc2c1	–	2.52 µM	–	2.87	–	–	–	2.21	–	2.59	–	2.48	–	2.2	–	41.9	–	1.57	–	–
Nc1ncnc2c1ncn2C1OC(C(=O)O)C(O)C1O (centres undefined)	–	> 100 µM	–	> 100	–	> 100	–	> 100	–	> 100	–	> 100	–	> 100	–	> 100	–	> 100	–	> 100 µM
CC1=CC[C@@H]2C(C)(C)[C@@H](O)CC[C@@]2(C)[C@@H]1COc1ccc2ccc(=O)oc2c1	7.2 µM	21.3 µM	3.83	18.2	5.68 µM	22.8	10.8 µM	23.1	4.28 µM	19.8	3.6 µM	15.8	16.6 µM	42.3	3.22 µM	12.7	9.83 µM	44.6	3.27 µM	14 µM
COC(=O)c1ccc2c(c1)c1c(C)c3cnccc3c(C)c1n2C	0.0622 µM	0.241 µM	0.0653	0.584	0.0615 µM	0.658	0.0652 µM	0.558	0.0574 µM	0.341	0.0394 µM	1.38	0.117 µM	1.26	0.0498 µM	0.636	0.0418 µM	1.4	0.243 µM	1.05 µM
O=C(N/N=C/c1ccc(F)cc1)c1[nH]c2ccc(I)cc2c1-c1ccccc1	0.372 µM	7.85 µM	12.5	> 92.3	0.76 µM	> 54.5	0.27 µM	1.5	2.24 µM	> 66.8	0.39 µM	> 58.3	3.49 µM	> 100	0.274 µM	0.769	0.35 µM	10	0.259 µM	0.824 µM
O=c1c(OC/C(=N/O)c2ccccc2)c(-c2ccccc2)oc2ccccc12	19.4 µM	> 50 µM	14.3	> 50	30.3 µM	> 50	11.2 µM	23.2	21.3 µM	> 50	17.1 µM	> 50	22.3 µM	> 50	14 µM	42	13.7 µM	34.3	12.6 µM	> 50 µM
C=C1C(=O)O[C@H]2[C@H]1CC/C(COC(=O)c1ccc(C(=O)O)s1)=C\CC[C@@]1(C)O[C@@H]21	1.52 µM	3.43 µM	1.61	3.45	5.35 µM	18.4	5.65 µM	18.7	12.2 µM	30.5	1.65 µM	4.72	3.05 µM	10.1	3.4 µM	26.2	1.56 µM	3.5	–	–
CN(C)CN1C(=O)S/C(=C2\C(=O)N(CN(C)C)c3ccccc32)C1=O	–	68.3 µM	–	> 100	–	> 100	–	> 100	–	> 100	–	> 100	–	> 100	–	> 100	–	> 100	–	37.2 µM
Cc1ccc(-c2cc3nc(-c4ccccc4)nc(C(Cl)Cl)n3n2)cc1	> 50 µM	> 50 µM	0.725	1.62	0.927 µM	2.63	0.955 µM	1.95	> 50 µM	> 50	0.958 µM	3.13	1.19 µM	3.31	0.789 µM	2.42	1.2 µM	5.32	1.39 µM	4.06 µM
CC1(C)C(=O)/C(=C\c2ccco2)C[C@]2(C)[C@H]3CC=C4[C@@H]5C[C@](C)(C(=O)O)CC[C@]5(C)CC[C@@]4(C)[C@]3(C)CC[C@@H]12	13.3 µM	35.1 µM	3.83	17	4.21 µM	21.7	7.06 µM	24.6	9.92 µM	37	5.26 µM	18.8	15.6 µM	32.2	10 µM	29.2	11.7 µM	28.6	6.78 µM	27.2 µM
ClCCn1cnc2c(SCc3ccccc3)ncnc21	7.04 µM	> 100 µM	16.3	> 100	1.22 µM	76.5	3.12 µM	> 100	31 µM	> 100	0.334 µM	> 100	> 100 µM	> 100	4.94 µM	> 100	0.872 µM	> 100	4.68 µM	68.3 µM
C=C1C(O)C2C(=C(CC(C)C)C13CC3)C(=O)C(C)(C)C2OC (centres undefined)	> 100 µM	> 100 µM	97	> 100	> 100 µM	> 100	> 100 µM	> 100	–	–	> 100 µM	> 100	> 100 µM	> 100	> 100 µM	> 100	> 100 µM	> 100	–	–
O=C(O)c1nnsc1COCc1ccccc1	–	> 100 µM	–	> 100	–	> 100	–	> 100	–	–	–	> 100	–	> 100	–	> 100	–	> 100	–	–
O=S(=O)(O)c1ccc2cc(N=Nc3cc(S(=O)(=O)O)c4cccnc4c3O)ccc2c1	–	> 100 µM	–	> 100	–	> 100	–	> 100	–	> 100	–	> 100	–	> 100	–	> 100	–	> 100	–	4.97 µM
CN(C)CCNC(=O)c1cc([N+](=O)[O-])cc2ccc(-c3ccccc3)nc12	–	> 100 µM	–	27.4	–	28	–	> 57.3	–	11.8	–	> 56.6	–	27.6	–	9.97	–	40	–	21.7 µM
